The text below walks through data of PMC3163364, “Preformulation Studies of Zidovudine Derivatives: Acid Dissociation Constants, Differential Scanning Calorimetry, Thermogravimetry, X-Ray Powder Diffractometry and Aqueous Stability Studies” (Scientia Pharmaceutica, 2011).

The nature of data set [1]: pKa determination by differential scanning potentiometry (DSP). Format: physicochemical. As to the method: In the differential scanning potentiometry (DSP) methodology, acid and basic groups generate negative and positive areas, respectively. Thus, the NH acidic groups of AZT and thymidine were used as reference to validate the DSP, since their pKa values had been previously reported.
A conventional pH-meter (GLP 21, Crison Instrument) with an Ag/AgCl-reference electrode was used. NaOH was added at 0.1 mL increments, with its corresponding pH value recorded from the average of two sample determinations using DMSO as the cosolvent (2.5 %) at 25 °C. The areas were calculated using the Origin 7 program. For the reference graph, an aliquot of 10 mL of HCl (0.1 mol L^−1) and 0.5 mL of DMSO was titrated with NaOH (0.1 mol L^−1); for the sample graphs, aliquots (10 mL) of HCl (0.1 mol L^−1), 0.5 mL DMSO and 0.12 mmol for each compound were titrated with NaOH (0.1 mol L^−1). The volume of each solution was completed to 20 mL with Milli-Q water before titration.

For data set [2] the following is noted: cited from earlier work.
The nature of data set [3]: aqueous stability in buffers of different pH at 60 °C, HPLC. Format: physicochemical. Also noted: key to Aqueous stability: Stable: degradation products by HPLC were not observed after 80 h of experiment; Unstable: The determination was not possible due to a rapid decomposition. As to conditions: for half-life at 0.5 mM: aqueous buffer, read-out: t½. From the text:
Table 2 lists the pH media, experimental rate constants (kobs, when it could be determined) and their corresponding half-life times (t½).
The aqueous stability of AZT and their derivatives 2–6 was examined at different pH values: pH 1.0 (hydrochloric acid-potassium chloride); pH 2.6 (citric acid-sodium phosphate monobasic); pH 7.4 (sodium phosphate dibasic); pH 9.4 (sodium hydrogen carbonate-sodium hydroxide) and pH 13.2 (potassium chloride-sodium hydroxide). The buffer concentrations were 0.1 mol L^−1 and the ionic strength (μ) of the buffers was adjusted to 0.1 with calculated amount of sodium chloride (NaCl). All buffer solutions were prepared with Milli Q water. The pH of each solution was determined using a GLP 21 (Crison Instruments) pHmeter. Stock solutions (5 × 10^−5 mol mL^−1) of each compound were prepared in DMSO prior to use, with 10 μL of the stock solution being added to 990 μL of buffer, and the vials placed in a water bath at 60 °C during all the experiment. Each vial was withdrawn at predetermined time intervals, and immediately stored at −18 °C until being used. For their analysis, the samples were left to defrost, and the aliquots of 100 μL were sampled and added to 400 μL of MeOH at 25 °C. Then, the solution was analyzed by HPLC to determine the rate of disappearance of each compound.
Samples were analyzed using an HPLC system Agilent® 1100 equipped with Phenomenex® column: Hypersil ODS 5 μ particle diameter (4.6 × 250 mm). Detection was carried out with an UV detector at λ = 267 nm, using the following three solvent systems as mobile phases with a flow rate of 1 mL min^−1 at 35 °C: A); 50% phosphate buffer (pH 7.5, 0.02 mol L^−1), 50% MeOH and 2% THF; B) 60% phosphate buffer (pH 7.5, 0.02 mol L^−1), 40% MeOH and 2% THF; and; C) 65% phosphate buffer (pH 7.5, 0.02 mol L^−1), 35% MeOH and 2% THF to obtain an adequate peak separation.

A short description of data set [4]: Differential Scanning Calorimetry (DSC) and Thermogravimetry (TG). Format: physicochemical. Conditions: for DSC exothermic decomposition peak: accompanied by weight loss in TG, nitrogen atmosphere, 25–300 °C; for glass transition, small DSC endothermic peak (T onset): extrapolated onset temperature. As to the method: Compounds 2, 4, 5 and 6 also presented an exothermic decomposition peak above 150 °C, which is accompanied by a weight loss in the respective TG curves (Figure 3).
(§1) DSC measurements were carried out using a 2920 modulated DSC (TA Instrument). The temperature axis and the cell constant of the DSC were calibrated with indium. Weighed samples (1.5–3 mg, C-33 Microbalance, Cahan) were scanned in covered aluminium (Al) pans under a dynamic dry nitrogen atmosphere (50 mL min^−1) starting at 25 °C and raising the temperature in 5 °C steps until reaching 300 °C. TG measurements were performed with a TA Instrument Hi-res TG 2950 (TA Instrument). Samples (1.5–3 mg) were weighed in Al pans, starting at 25 °C and raising the temperature in 5 °C steps until reaching 300 °C, under a dynamic dry nitrogen atmosphere (50 mL min^−1). The Universal Analysis Version 2.5H software was used for both measurements. The XRPD patterns were determined at around 20 °C using a diffractometer (Miniflex 2000, Rigaku), with CuKα radiation (λ= 1.5418 Å) being obtained by Ni-filtration. Each sample was packed into an Al holder in the range of 5–50 (2Θ).

Data set [5] can be described thus: X-Ray Powder Diffractometry (XRPD). Format: physicochemical. Conditions: around 20 °C, CuKα radiation. As for the experimental part:
XRPD analysis provides an accurate identification of crystalline and amorphous solid phases. The XRPD patterns of AZT and their derivatives 2–6 are depicted in Figure 4.
as §1

Details of data set [6]: method as in earlier work. As to conditions: cited from earlier work.
Data set [7] has as its system HIV. Details: method as in earlier work. Conditions: previous in vitro studies; cited from earlier work.
Details of data set [8]: method as in earlier work. Conditions: cited from earlier work. This is another data set of the same source.
The mark [9] stands for this setting: aqueous HCl solution with DMSO cosolvent, titrated with NaOH, DSP, DMSO 2.5 % cosolvent, 25 °C, calculated from area with eq. 2, read-out: pKa, NH group of the pyrimidinic base, experimental value.
The mark [10] stands for this setting: aqueous HCl solution with DMSO cosolvent, titrated with NaOH, DSP, DMSO 2.5 % cosolvent, 25 °C, calculated from area with eq. 2, read-out: pKa, aliphatic amine, experimental value.

Where two headings read alike, the source gives them in different places.

As to `Cc1cn([C@H]2C[C@H](O)[C@@H](CO)O2)c(=O)[nH]c1=O` [Thymidine, reference compound], the pKa in data set [1] (pKa, NH group of the pyrimidinic base, experimental value) stood at 9.45.
Take `CC[C@H]1OC(=O)[C@H](C)[C@@H](O[C@H]2C[C@@](C)(OC)[C@@H](O)[C@H](C)O2)[C@H](C)[C@@H](O[C@@H]2O[C@H](C)C[C@H](N(C)C)[C@H]2O)[C@](C)(O)C[C@@H](C)C(=O)[C@H](C)[C@@H](O)[C@]1(C)O` [erytromycine]: the “pKa of compounds used for regression of DSP area vs pKa (eq. 2)” value in data set [2] (reference values, source not given) is reported as 8.80.
`Cc1cn([C@H]2C[C@H](N=[N+]=[N-])[C@@H](COC(=O)N3CCNCC3)O2)c(=O)[nH]c1=O` [compound 5]: the figures for the pKa in data set [1] (setting [9]) and in data set [1] (setting [10]) were 8.66 and 6.52, respectively. The half-life at 0.5 mM in data set [3] (pH 13.2, 60 °C) was 3.97 h. The Aqueous stability entry in data set [3] (pH 1.0, 60 °C) was “Stable^a”; in data set [3] (pH 7.4, 60 °C), “Stable^a”; in data set [3] (pH 9.4, 60 °C), “Stable^a”. The kobs in data set [3] (pH 13.2, 60 °C) was determined as 0.00323 min⁻¹. Also, the “DSC exothermic decomposition peak” value in data set [4] is “above 150 °C”. In data set [4], the “glass transition, small DSC endothermic peak (T onset)” value was 35.1 °C. Also, the “solid state by XRPD (crystalline or amorphous)” value in data set [5] is on record as “amorphous”.
For `Cc1cn([C@H]2C[C@H](N=[N+]=[N-])[C@@H](COC(=O)NCCN3CCNCC3)O2)c(=O)[nH]c1=O` [compound 6], the pKa in data set [1] (setting [10]) was 9.03. For the same compound, in data set [3] (pH 13.2, 60 °C), the half-life at 0.5 mM was determined as 6.48 h; the “Degradation rate constant, kobs” value was 1.96 10^−3 min^−1; the kobs is 0.00196 min⁻¹. Further, the Aqueous stability entry in data set [3] (pH 1.0, 60 °C) is “Stable^a”. For the same compound, the Aqueous stability entry in data set [3] (pH 7.4, 60 °C) is reported as “Stable^a”. The Aqueous stability entry in data set [3] (pH 9.4, 60 °C) is “Stable^a”. Besides, in data set [4], the “DSC exothermic decomposition peak” value was “above 150 °C” and the “glass transition, small DSC endothermic peak (T onset)” value was 42.5 °C. In addition, in data set [5], the “solid state by XRPD (crystalline or amorphous)” value is “amorphous”.
For `Cc1cn2c(nc1=O)OC[C@H]1O[C@@H]2C[C@@H]1N=[N+]=[N-]` [compound 3], the half-life at 0.5 mM in data set [3] (pH 1.0, 60 °C) amounted to 2.13 h; in data set [3] (pH 7.4, 60 °C) it was 79.2 h; in data set [3] (pH 9.4, 60 °C), 2.07 h. Besides, the “Degradation rate constant, kobs” value in data set [3] (pH 1.0, 60 °C) was 5.43 10^−3 min^−1; in data set [3] (pH 7.4, 60 °C) it was 0.15 10^−3 min^−1; in data set [3] (pH 9.4, 60 °C), 5.58 10^−3 min^−1. Further, the Aqueous stability result in data set [3] (pH 13.2, 60 °C) is given as “Unstable^d”. Moreover, the “stability in rat plasma” value in data set [6] (30 h of incubation at 37 °C) is “showed stability”. Further, the “DSC exothermic decomposition peak” value in data set [4] amounted to 215 °C. Moreover, in data set [7], the anti-HIV activity entry is recorded as “anti-HIV activity”. For the same compound, in data set [8], the cytotoxicity entry is given as “no cytotoxicity”.
Take `Cc1ccc(S(=O)(=O)OC[C@H]2O[C@@H](n3cc(C)c(=O)[nH]c3=O)C[C@@H]2N=[N+]=[N-])cc1` [compound 2]: the half-life at 0.5 mM came out at 12.1 h in data set [3] (pH 7.4, 60 °C); 0.775 h in data set [3] (pH 9.4, 60 °C); 0.765 h in data set [3] (pH 13.2, 60 °C). Also, the Aqueous stability entry in data set [3] (pH 1.0, 60 °C) was “Stable^a”. Further, the “Degradation rate constant, kobs” value in data set [3] (pH 7.4, 60 °C) is 0.94 10^−3 min^−1; in data set [3] (pH 9.4, 60 °C) it was 14.9 10^−3 min^−1; in data set [3] (pH 13.2, 60 °C) it was 15.1 10^−3 min^−1. Moreover, the “stability in rat plasma” value in data set [6] is “stable”. The “DSC exothermic decomposition peak” value in data set [4] is “above 150 °C”. For the same compound, the anti-HIV activity entry in data set [7] is listed as “lacked the necessary activity”.
On to `Cc1cn([C@H]2C[C@H](N=[N+]=[N-])[C@@H](CO)O2)c(=O)[nH]c1=O` [compound 1, 3′-Azido-3′-deoxythymidine, reference compound], for which the pKa in data set [1] (DSP, DMSO 2.5 % cosolvent, 25 °C, calculated from area with eq. 2, read-out: pKa, NH group of the pyrimidinic base, experimental value) is 9.42. Besides, the Aqueous stability entry in data set [3] (pH 1.0, 60 °C) is given as “Stable^a”; in data set [3] (pH 7.4, 60 °C), “Stable^a”; in data set [3] (pH 9.4, 60 °C), “Stable^a”; in data set [3] (pH 13.2, 60 °C), “Stable^a”. Moreover, the “aqueous stability over the studied pH media, in words” value in data set [3] (pH 1.0–13.2) is on record as “stable at the studied pH media”. The “pKa, NH acidic group, previously reported experimental value” in data set [2] was 9.68.
As to `Cc1cn([C@H]2C[C@H](N=[N+]=[N-])[C@@H](COC(=O)N3CCCCC3)O2)c(=O)[nH]c1=O` [compound 4], the pKa in data set [1] (setting [9]) was 8.61. In data set [3] (pH 13.2, 60 °C), the half-life at 0.5 mM was found to be 11.2 h; the “Degradation rate constant, kobs” value is reported as 1.04 10^−3 min^−1; the kobs came to 0.00104 min⁻¹. The Aqueous stability result in data set [3] (pH 1.0, 60 °C) is “Stable^a”. The Aqueous stability entry in data set [3] (pH 7.4, 60 °C) is given as “Stable^a”. The Aqueous stability result in data set [3] (pH 9.4, 60 °C) was “Stable^a”. Besides, in data set [4], the “DSC exothermic decomposition peak” value is “above 150 °C”.
